# In ChEMBL document CHEMBL3885861, “Open TG-GATES”:
# Species: Rattus norvegicus
# Test: Open TG-GATES - Regimen: Daily Repeat
# Assay type: toxicity, organism-based, Sprague-Dawley
# Design: regimen Daily Repeat, gender Male, age 6 weeks
# Details: in vivo, po, 30 mg/kg, route gavage, dose level High; for APTT / Bas / Eos / Fbg / Hb / Ht / Lym / MCH / MCHC / MCV / Mono / Neu / PT / Plat / RBC / Ret / WBC: tissue Blood
# [1] = 72 h, tissue Kidney, time 3 day
# [2] = 72 h, tissue Plasma, time 3 day
structure (smiles),measurement,setting,value
Nc1c2c(nc3ccccc13)CCCC2 [TACRINE],TERMINAL_BW,"72 h, time 3 day",194.7 g
same,APTT,"72 h, time 3 day",21.3 s
same,Bas,"72 h, time 3 day",0%
same,Eos,"72 h, time 3 day",0.7%
same,Fbg,"72 h, time 3 day",361.7 mg/dL
same,Hb,"72 h, time 3 day",14.3 g/dL
same,Ht,"72 h, time 3 day",40.7%
same,Lym,"72 h, time 3 day",73%
same,MCH,"72 h, time 3 day",21 pg
same,MCHC,"72 h, time 3 day",35.1%
same,MCV,"72 h, time 3 day",59.8 fL
same,Mono,"72 h, time 3 day",2.7%
same,Neu,"72 h, time 3 day",22%
same,PT,"72 h, time 3 day",16.1 s
same,Plat,"72 h, time 3 day",120.4 x10_4/uL
same,RBC,"72 h, time 3 day",681.7 x10_4/ul
same,Ret,"72 h, time 3 day",3%
same,WBC,"72 h, time 3 day",79 x10_2/uL
same,KIDNEY_L,[1],0.9 g
same,KIDNEY_R,[1],0.9 g
same,KIDNEY_TOTAL,[1],1.9 g
same,LIVER,"72 h, tissue Liver, time 3 day",8.6 g
same,A/G,[2],1.2
same,ALP,[2],1465.3 IU/L
same,ALT,[2],37.3 IU/L
same,AST,[2],82.7 IU/L
same,BUN,[2],16.3 mg/dL
same,CRE,[2],0.2 mg/dL
same,Ca,[2],10.8 mg/dL
same,Cl,[2],107.3 meq/L
same,DBIL,[2],0.0067 mg/dL
same,GLC,[2],169 mg/dL
same,IP,[2],7.4 mg/dL
same,K,[2],4.1 meq/L
same,LDH,[2],229.7 IU/L
same,Na,[2],140.7 meq/L
same,PL,[2],142.7 mg/dL
same,RALB,[2],3.2 g/dL
same,TBIL,[2],0.0233 mg/dL
same,TC,[2],84 mg/dL
same,TG,[2],52 mg/dL
same,TP,[2],5.8 g/dL
same,gamma-GTP,[2],1 IU/L
same,TERMINAL_BW,"[…], time 7 day",217.1 g
same,TERMINAL_BW,"[…], time 14 day",249.3 g
same,TERMINAL_BW,"[…], time 28 day",315.1 g
same,APTT,"[…], time 7 day",22.7 s
same,Bas,"[…], time 7 day",0%
same,Eos,"[…], time 7 day",0.7%
same,Fbg,"[…], time 7 day",325.7 mg/dL
same,Hb,"[…], time 7 day",14.2 g/dL
same,Ht,"[…], time 7 day",40.2%
same,Lym,"[…], time 7 day",73%
same,MCH,"[…], time 7 day",21.1 pg
same,MCHC,"[…], time 7 day",35.3%
same,MCV,"[…], time 7 day",59.7 fL
same,Mono,"[…], time 7 day",3.3%
same,Neu,"[…], time 7 day",22.3%
same,PT,"[…], time 7 day",16.2 s
same,Plat,"[…], time 7 day",127.6 x10_4/uL
same,RBC,"[…], time 7 day",673.7 x10_4/ul
same,Ret,"[…], time 7 day",4.7%
same,WBC,"[…], time 7 day",124.6 x10_2/uL
same,APTT,"[…], time 14 day",23.8 s
same,Bas,"[…], time 14 day",0%
same,Eos,"[…], time 14 day",1%
same,Fbg,"[…], time 14 day",320 mg/dL
same,Hb,"[…], time 14 day",15.1 g/dL
same,Ht,"[…], time 14 day",41.9%
same,Lym,"[…], time 14 day",79.3%
same,MCH,"[…], time 14 day",20.4 pg
same,MCHC,"[…], time 14 day",36%
same,MCV,"[…], time 14 day",56.8 fL
same,Mono,"[…], time 14 day",1.7%
same,Neu,"[…], time 14 day",17.3%
same,PT,"[…], time 14 day",15.8 s
same,Plat,"[…], time 14 day",126 x10_4/uL
same,RBC,"[…], time 14 day",737.3 x10_4/ul
same,Ret,"[…], time 14 day",3.5%
same,WBC,"[…], time 14 day",110.7 x10_2/uL
same,APTT,"[…], time 28 day",21.4 s
same,Bas,"[…], time 28 day",0%
same,Eos,"[…], time 28 day",1%
same,Fbg,"[…], time 28 day",295 mg/dL
same,Hb,"[…], time 28 day",15 g/dL
same,Ht,"[…], time 28 day",41.2%
